Our source for the IC50 values is patent US7902373B2 (Pfizer Inc, priority 2006, dated 2011).

pIC50: −log10 of the molar value.

In this test the target is human recombinant H-PGDS (Homo sapiens, UniProt O60760). As to the kind of experiment: Fluorescence intensity h-PGDS TBA enzyme assay. The settings on record: Examples up to 622 (and 3a, 3b). The test is classed as biochemical.
Chain of human recombinant H-PGDS (O60760 whole entry): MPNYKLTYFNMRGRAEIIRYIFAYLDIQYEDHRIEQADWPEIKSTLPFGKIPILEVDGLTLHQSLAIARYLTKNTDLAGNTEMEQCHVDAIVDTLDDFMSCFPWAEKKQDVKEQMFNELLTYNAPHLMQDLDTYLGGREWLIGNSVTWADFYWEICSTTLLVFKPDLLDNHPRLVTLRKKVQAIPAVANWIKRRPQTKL
The pIC50 is −log10 of the IC50, conventionally taken in molar units. Consider `CC(C)CN1CCC(N2CCC(NC(=O)c3ccc(-c4cccc(F)c4)nc3)CC2)CCC1=O` (stereo not drawn) [Example 538, 6-(3-Fluorophenyl)-N-[1-(1-isobutyl-7-oxoazepan-4-yl)piperidin-4-yl]nicotinamide], for which the negative logarithm of the IC50 (pIC50) is 8.71.

Regarding `COCCN1CCC(N2CCC(NC(=O)c3ccc(-c4cccc(F)c4)nc3)CC2)CCC1=O` (stereo not drawn) [Example 539, 6-(3-Fluorophenyl)-N-{1-[1-(2-methoxyethyl)-7-oxoazepan-4-yl]piperidin-4-yl}nicotinamide], the pIC50 was 8.57.

In the case of `CC(c1cnn(-c2ccccc2)c1)N1CCC(NC(=O)c2ccc(-c3cccc(F)c3)nc2)CC1` (stereo not drawn) [Example 540, 6-(3-Fluorophenyl)-N-{1-[1-(1-phenyl-1H-pyrazol-4-yl)ethyl]piperidin-4-yl}nicotinamide], the pIC50 is 8.70.

For the compound `CCC(c1ccc(OC)c(OC)c1)N1CCC(NC(=O)c2ccc(-c3cccc(F)c3)nc2)CC1` (stereo not drawn) [Example 541, N-{1-[1-(3,4-Dimethoxyphenyl)propyl]piperidin-4-yl}-6-(3-fluorophenyl)nicotinamide], the negative logarithm of the IC50 (pIC50) is 9.02.

As to `O=C(NC1CCN(C2CCC(=O)N(CC3CCC3)CC2)CC1)c1ccc(-c2cccc(F)c2)nc1` (stereo not drawn) [Example 542, N-{1-[1-(Cyclobutylmethyl)-7-oxoazepan-4-yl]piperidin-4-yl}-6-(3-fluorophenyl)nicotinamide], the pIC50 is 8.77.

With `COc1ccc(C(C)N2CCC(NC(=O)c3ccc(-c4cccc(F)c4)nc3)CC2)c(OC)c1` (stereo not drawn) [Example 543, N-{1-[1-(2,4-Dimethoxyphenyl)ethyl]piperidin-4-yl}-6-(3-fluorophenyl)nicotinamide], the negative-log IC50 (pIC50) was 8.49.

As for `COc1cc(OC)cc(C(C)N2CCC(NC(=O)c3ccc(-c4cccc(F)c4)nc3)CC2)c1` (stereo not drawn) [Example 544, N-{1-[1-(3,5-Dimethoxyphenyl)ethyl]piperidin-4-yl}-6-(3-fluorophenyl)nicotinamide], the pIC50 is 8.90.

For `CCC(C)N1CCC(NC(=O)c2ccc(-c3cccc(F)c3)nc2)CC1` (stereo not drawn) [Example 545, N-(1-sec-Butylpiperidin-4-yl)-6-(3-fluorophenyl)nicotinamide], the pIC50 was 8.58.

`CC(=O)NC1CCC(N2CCC(NC(=O)c3ccc(-c4cccc(F)c4)nc3)CC2)CC1` (stereo not drawn) [Example 546, N-{1-[4-(Acetylamino)cyclohexyl]piperidin-4-yl}-6-(3-fluorophenyl)nicotinamide]: the pIC50 is 8.55.

On to `O=C(NC1CCN(C2CCOCC2)CC1)c1ccc(-c2cccc(F)c2)nc1` [Example 547, 6-(3-Fluorophenyl)-N-[1-(tetrahydro-2H-pyran-4-yl)piperidin-4-yl]nicotinamide], for which the pIC50 was 8.94.

Consider `CC(CCn1cccn1)N1CCC(NC(=O)c2ccc(-c3cccc(F)c3)nc2)CC1` (stereo not drawn) [Example 548, 6-(3-Fluorophenyl)-N-{1-[1-methyl-3-(1H-pyrazol-1-yl)propyl]piperidin-4-yl}nicotinamide], for which the pIC50 was 8.68.

For the compound `COC1CCCC(N2CCC(NC(=O)c3ccc(-c4cccc(F)c4)nc3)CC2)C1` (stereo not drawn) [Example 549, 6-(3-Fluorophenyl)-N-[1-(3-methoxycyclohexyl)piperidin-4-yl]nicotinamide], the pIC50 is 8.65.

For `CC(CCO)N1CCC(NC(=O)c2ccc(-c3cccc(F)c3)nc2)CC1` (stereo not drawn) [Example 550, 6-(3-Fluorophenyl)-N-[1-(3-hydroxy-1-methylpropyl)piperidin-4-yl]nicotinamide], the pIC50 is 8.62.

As for `O=C(NC1CCN(C2CCCC2)CC1)c1ccc(-c2cccc(F)c2)nc1` [Example 551, N-(1-Cyclopentylpiperidin-4-yl)-6-(3-fluorophenyl)nicotinamide], the pIC50 was 8.88.

Take `O=C(NC1CCN(C2CNC2)CC1)c1ccc(-c2cccc(F)c2)nc1` [Example 552, N-(1-Azetidin-3-ylpiperidin-4-yl)-6-(3-fluorophenyl)nicotinamide]: the pIC50 was 8.63.

On to `COc1ccccc1OCC(C)N1CCC(NC(=O)c2ccc(-c3cccc(F)c3)nc2)CC1` (stereo not drawn) [Example 553, 6-(3-Fluorophenyl)-N-{1-[2-(2-methoxyphenoxy)-1-methylethyl]piperidin-4-yl}nicotinamide], for which the pIC50 is 8.75.

On to `O=C(NC1CCN(C2CCC(O)(c3cncnc3)CC2)CC1)c1ccc(-c2cccc(F)c2)nc1` (stereo not drawn) [Example 554, 6-(3-Fluorophenyl)-N-[1-(4-hydroxy-4-pyrimidin-5-ylcyclohexyl)piperidin-4-yl]nicotinamide], for which the pIC50 was 8.76.

With `O=C(NC1CCN(C2CCC(O)(c3nccs3)CC2)CC1)c1ccc(-c2cccc(F)c2)nc1` (stereo not drawn) [Example 555, 6-(3-Fluorophenyl)-N-{1-[4-hydroxy-4-(1,3-thiazol-2-yl)cyclohexyl]piperidin-4-yl}nicotinamide], the pIC50 is 9.03.

As for `O=C(NC1CCN(C2CCC(Oc3ccccc3)CC2)CC1)c1ccc(-c2cccc(F)c2)nc1` (stereo not drawn) [Example 556, 6-(3-Fluorophenyl)-N-[1-(4-phenoxycyclohexyl)piperidin-4-yl]nicotinamide], the pIC50 was 9.44.

With `NC(=O)CCN1CCC(N2CCC(NC(=O)c3ccc(-c4cccc(F)c4)nc3)CC2)CCC1=O` (stereo not drawn) [Example 557, N-{1-[1-(3-Amino-3-oxopropyl)-7-oxoazepan-4-yl]piperidin-4-yl}-6-(3-fluorophenyl)nicotinamide], the pIC50 is 8.18.

`O=C(NC1CCN(C2CCC(O)(c3ccccc3)CC2)CC1)c1ccc(-c2cccc(F)c2)nc1` (stereo not drawn) [Example 558, 6-(3-Fluorophenyl)-N-[1-(4-hydroxy-4-phenylcyclohexyl)piperidin-4-yl]nicotinamide]: the pIC50 is 9.46.

For `CC(C)(C)OC(=O)c1ccc(N2CCC(NC(=O)c3ccc(-c4cccc(F)c4)nc3)CC2)nc1` [Example 559, tert-Butyl 6-[4-({[6-(3-fluorophenyl)pyridin-3-yl]carbonyl}amino)piperidin-1-yl]nicotinate], the pIC50 is 7.97.

For `O=C(O)c1ccc(N2CCC(NC(=O)c3ccc(-c4cccc(F)c4)nc3)CC2)nc1` [Example 560, 6-[4-({[6-(3-Fluorophenyl)pyridin-3-yl]carbonyl}amino)piperidin-1-yl]nicotinic acid], the pIC50 was 9.19.

For the compound `CCN(CCO)C(=O)c1ccc(N2CCC(NC(=O)c3ccc(-c4cccc(F)c4)nc3)CC2)nc1` [Example 561, N-Ethyl-6-[4-({[6-(3-fluorophenyl)pyridin-3-yl]carbonyl}amino)piperidin-1-yl]-N-(2-hydroxyethyl)nicotinamide], the negative-log IC50 (pIC50) is 8.94.

Regarding `C=C(C)CN(C)C(=O)c1ccc(N2CCC(NC(=O)c3ccc(-c4cccc(F)c4)nc3)CC2)nc1` [Example 562, 6-[4-({[6-(3-Fluorophenyl)pyridin-3-yl]carbonyl}amino)piperidin-1-yl]-N-methyl-N-(2-methylprop-2-en-1-yl)nicotinamide], the pIC50 was 8.76.

As for `C=CCN(C)C(=O)c1ccc(N2CCC(NC(=O)c3ccc(-c4cccc(F)c4)nc3)CC2)nc1` [Example 563, N-Allyl-6-[4-({[6-(3-fluorophenyl)pyridin-3-yl]carbonyl}amino)piperidin-1-yl]-N-methylnicotinamide], the pIC50 was 9.01.

As to `O=C(NC1CCN(c2ccc(C(=O)N3CCC3)cn2)CC1)c1ccc(-c2cccc(F)c2)nc1` [Example 564, N-{1-[5-(Azetidin-1-ylcarbonyl)pyridin-2-yl]piperidin-4-yl}-6-(3-fluorophenyl)nicotinamide], the pIC50 was 8.96.

With `C#CCN(C)C(=O)c1ccc(N2CCC(NC(=O)c3ccc(-c4cccc(F)c4)nc3)CC2)nc1` [Example 565, 6-[4-({[6-(3-Fluorophenyl)pyridin-3-yl]carbonyl}amino)piperidin-1-yl]-N-methyl-N-prop-2-yn-1-ylnicotinamide], the pIC50 was 8.98.

Regarding `CCN(C)C(=O)c1ccc(N2CCC(NC(=O)c3ccc(-c4cccc(F)c4)nc3)CC2)nc1` [Example 566, N-Ethyl-6-[4-({[6-(3-fluorophenyl)pyridin-3-yl]carbonyl}amino)piperidin-1-yl]-N-methylnicotinamide], the pIC50 was 8.74.

For the compound `CC(CO)N(C)C(=O)c1ccc(N2CCC(NC(=O)c3ccc(-c4cccc(F)c4)nc3)CC2)nc1` (stereo not drawn) [Example 567, 6-[4-({[6-(3-Fluorophenyl)pyridin-3-yl]carbonyl}amino)piperidin-1-yl]-N-(2-hydroxy-1-methylethyl)-N-methylnicotinamide], the pIC50 was 9.06.

For the compound `O=C(NC1CCN(c2ccc(C(=O)N3CCC(F)C3)cn2)CC1)c1ccc(-c2cccc(F)c2)nc1` (stereo not drawn) [Example 568, 6-(3-Fluorophenyl)-N-(1-{5-[(3-fluoropyrrolidin-1-yl)carbonyl]pyridin-2-yl}piperidin-4-yl)nicotinamide], the pIC50 was 9.19.

With `CN(C(=O)c1ccc(N2CCC(NC(=O)c3ccc(-c4cccc(F)c4)nc3)CC2)nc1)C1CCC1` [Example 569, N-Cyclobutyl-6-[4-({[6-(3-fluorophenyl)pyridin-3-yl]carbonyl}amino)piperidin-1-yl]-N-methylnicotinamide], the negative-log IC50 (pIC50) was 8.67.

In the case of `CCN(CC)C(=O)c1ccc(N2CCC(NC(=O)c3ccc(-c4cccc(F)c4)nc3)CC2)nc1` [Example 570, N,N-Diethyl-6-[4-({[6-(3-fluorophenyl)pyridin-3-yl]carbonyl}amino)piperidin-1-yl]nicotinamide], the pIC50 was 8.85.

With `O=C(NC1CCN(c2ccc(C(=O)N3CC=CC3)cn2)CC1)c1ccc(-c2cccc(F)c2)nc1` [Example 571, N-{1-[5-(2,5-Dihydro-1H-pyrrol-1-ylcarbonyl)pyridin-2-yl]piperidin-4-yl)-6-(3-fluorophenyl)nicotinamide], the pIC50 was 8.98.

Take `CCCN(C)C(=O)c1ccc(N2CCC(NC(=O)c3ccc(-c4cccc(F)c4)nc3)CC2)nc1` [Example 572, 6-[4-({[6-(3-Fluorophenyl)pyridin-3-yl]carbonyl}amino)piperidin-1-yl]-N-methyl-N-propylnicotinamide]: the pIC50 is 8.28.

In the case of `O=C(NC1CCN(c2ccc(C(=O)N3CCSC3)cn2)CC1)c1ccc(-c2cccc(F)c2)nc1` [Example 573, 6-(3-Fluorophenyl)-N-{1-[5-(1,3-thiazolidin-3-ylcarbonyl)pyridin-2-yl]piperidin-4-yl}nicotinamide], the pIC50 is 8.87.
